From ChEMBL document CHEMBL1140450, “On-resin cyclization of peptide ligands of the Vascular Endothelial Growth Factor Receptor 1 by copper(I)-catalyzed 1,3-dipolar azide-alkyne cycloaddition” (Bioorg Med Chem Lett, 2007)
Non-standard residues stand in square brackets, D forms with d. Residues, ends and D or L forms follow the SMILES beside them. *: point of attachment. X2 = [N-]=[N+]=N[C@@H](CCCCN)C(=O)*; Pra = C#CC[C@H](N)C(=O)O

Molecular target: Vascular endothelial growth factor receptor 1 (Homo sapiens, UniProt P17948)
Test: Displacement of biotinylated VEGF165 from human recombinant VEGFR1

Chain of Vascular endothelial growth factor receptor 1 (P17948 whole entry): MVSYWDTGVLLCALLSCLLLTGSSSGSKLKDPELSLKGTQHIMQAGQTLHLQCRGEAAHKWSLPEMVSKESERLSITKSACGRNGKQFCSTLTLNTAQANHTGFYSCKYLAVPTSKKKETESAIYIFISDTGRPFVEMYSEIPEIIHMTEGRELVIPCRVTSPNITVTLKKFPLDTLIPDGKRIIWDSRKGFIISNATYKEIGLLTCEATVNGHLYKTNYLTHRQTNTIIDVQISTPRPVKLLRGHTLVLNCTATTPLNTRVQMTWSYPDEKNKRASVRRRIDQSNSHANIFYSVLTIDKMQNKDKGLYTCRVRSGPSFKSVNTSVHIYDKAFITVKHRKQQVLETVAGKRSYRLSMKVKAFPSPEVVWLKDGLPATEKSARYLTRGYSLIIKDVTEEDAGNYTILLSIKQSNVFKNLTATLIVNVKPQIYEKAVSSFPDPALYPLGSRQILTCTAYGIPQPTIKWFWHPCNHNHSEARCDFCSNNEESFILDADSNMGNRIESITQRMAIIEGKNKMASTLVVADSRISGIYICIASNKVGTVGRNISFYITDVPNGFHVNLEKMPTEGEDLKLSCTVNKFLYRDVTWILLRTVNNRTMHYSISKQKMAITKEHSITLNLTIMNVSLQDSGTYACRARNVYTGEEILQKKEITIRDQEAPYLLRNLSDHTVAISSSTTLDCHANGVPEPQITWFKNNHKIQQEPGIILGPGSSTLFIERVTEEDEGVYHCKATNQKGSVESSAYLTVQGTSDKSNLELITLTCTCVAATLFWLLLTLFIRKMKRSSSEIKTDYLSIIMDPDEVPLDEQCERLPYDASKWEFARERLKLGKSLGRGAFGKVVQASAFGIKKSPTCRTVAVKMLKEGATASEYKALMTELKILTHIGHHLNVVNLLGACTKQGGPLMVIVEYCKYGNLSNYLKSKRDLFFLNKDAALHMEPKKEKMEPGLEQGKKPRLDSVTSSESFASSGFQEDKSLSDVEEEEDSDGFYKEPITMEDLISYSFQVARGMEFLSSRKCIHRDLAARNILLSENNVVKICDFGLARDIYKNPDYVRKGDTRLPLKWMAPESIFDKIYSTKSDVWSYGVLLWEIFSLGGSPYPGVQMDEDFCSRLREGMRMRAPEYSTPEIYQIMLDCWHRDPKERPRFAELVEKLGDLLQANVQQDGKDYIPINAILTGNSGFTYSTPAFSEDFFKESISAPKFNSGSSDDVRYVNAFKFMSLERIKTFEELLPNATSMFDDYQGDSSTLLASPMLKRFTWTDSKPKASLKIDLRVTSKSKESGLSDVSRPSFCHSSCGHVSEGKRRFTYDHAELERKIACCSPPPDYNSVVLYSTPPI

Row | SMILES | IC50 [µM]
1 | C#CC[C@H](NC(=O)[C@H](CCC(=O)O)NC(=O)[C@H](CC(C)C)NC(=O)[C@@H]1CCCN1C(=O)[C@H](CCC(=O)O)NC(=O)[C@H](CC(=O)O)NC(=O)[C@H](Cc1ccc(O)cc1)NC(=O)[C@H](CCCCN)N=[N+]=[N-])C(N)=O (X2-YDEPLE[Pra]-NH2) | 151
2 | CSCC[C@@H]1NC(=O)[C@H](CCC(N)=O)NC(=O)[C@H](Cc2cnc[nH]2)NC(=O)Cn2cc(nn2)C[C@@H](C(N)=O)NC(=O)[C@H](Cc2ccc(O)cc2)NC(=O)[C@H](Cc2ccc(O)cc2)NC(=O)[C@H](Cc2ccccc2)NC1=O | 121
